From ChEMBL document CHEMBL4311960, “Two optimized antimicrobial peptides with therapeutic potential for clinical antibiotic-resistant Staphylococcus aureus” (Eur J Med Chem, 2019) come the findings set out here.

Series [1] relates to Staphylococcus aureus. Briefly: Inhibition of biofilm formation in methicillin-resistant Staphylococcus aureus ATCC 19498 assessed as downregulation of mecA gene at MIC incubated for 1 hr by qRT-PCR. Format: functional, organism-based. Background: Quantitative PCR measures a nucleic acid by following its amplification.
Series [2] can be described thus: Stability in mouse plasma at 20 uM incubated for 12 hrs by HPLC-MS analysis. The format is ADME, cell-free.
Series [3] relates to Staphylococcus aureus. Kind of series: Antibacterial activity against methicillin-resistant Staphylococcus aureus ATCC 18466 assessed as reduction in bacterial growth incubated for 24 hrs by serial dilution method. The format is functional. The conditions noted are these: ATCC 18466, 24 h, read-out: MIC.
Series [4] has as its system Staphylococcus aureus. Briefly: Disruption of membrane integrity in Staphylococcus aureus ATCC 29213 assessed as extravasation of cytoplasmic content at MIC incubated for 24 hrs by scanning electron microscopy. Format: functional, organism-based.
The subject of series [5] is Staphylococcus aureus. Briefly: Disruption of membrane integrity in Staphylococcus aureus ATCC 25923 assessed as cell membrane damage at MIC incubated for 24 hrs by scanning electron microscopy. The format is functional, organism-based.
Series [6] concerns Staphylococcus aureus. Briefly: Disruption of membrane integrity in Staphylococcus aureus ATCC 29213 assessed as shrinking of cell membrane at MIC incubated for 24 hrs by scanning electron microscopy. Format: functional, organism-based.
Series [7] can be described thus: Hemolytic activity in mouse Erythrocyte at 640 ug/ml incubated for 1 hr relative to control. The format is ADME, cell-based. The conditions noted are these: mouse erythrocytes, read-out: %max.
Series [8] relates to Staphylococcus aureus. Briefly: Disruption of membrane integrity in methicillin-resistant Staphylococcus aureus ATCC 18466 assessed as extravasation of cytoplasmic content at MIC incubated for 24 hrs by scanning electron microscopy. The format is functional, organism-based.
Series [9] deals with Staphylococcus aureus. Kind of series: Inhibition of biofilm formation in Staphylococcus aureus ATCC 29213 assessed as downregulation of […] gene at MIC incubated for 1 hr by qRT-PCR. The format is functional, organism-based.
Series [10] has as its system Staphylococcus aureus. Briefly: Disruption of membrane integrity in methicillin-resistant Staphylococcus aureus ATCC 18466 assessed as decrease in cell volume at MIC incubated for 24 hrs by scanning electron microscopy. Format: functional, organism-based.
Series [11] has as its system Staphylococcus aureus. Briefly: Disruption of membrane integrity in Staphylococcus aureus ATCC 25923 assessed as shrinking of cell membrane at MIC incubated for 24 hrs by scanning electron microscopy. The format is functional, organism-based.
Series [12] has as its system Staphylococcus aureus. Kind of series: Inhibition of biofilm formation in Staphylococcus aureus ATCC 25923 assessed as downregulation of spa gene at MIC incubated for 1 hr by qRT-PCR. The format is functional, organism-based.
Series [13] has as its system Staphylococcus aureus. Kind of series: Inhibition of biofilm formation in Staphylococcus aureus ATCC 29213 assessed as downregulation of hld gene at MIC incubated for 1 hr by qRT-PCR. The format is functional, organism-based.
Series [14] concerns Staphylococcus aureus. Kind of series: Disruption of membrane integrity in Staphylococcus aureus ATCC 25923 assessed as perforation of cell membrane at MIC incubated for 24 hrs by scanning electron microscopy. The format is functional, organism-based.
A short description of series [15]: Cytotoxicity against human HEK293T cells assessed as cell viability at 5 to 640 ug/ml incubated for 48 hrs by MTT assay relative to control. Format: cell-based, HEK-293T. The conditions noted are these: read-out: Activity. For orientation: Tetrazolium assays rely on reduction of a dye to a coloured formazan, in cell work by metabolically active cells.
Series [16] deals with Staphylococcus aureus. Kind of series: Antibacterial activity against Staphylococcus aureus ATCC 25923 assessed as reduction in bacterial growth at MIC measured after 15 passages. Format: functional.
In series [17] the test system is Staphylococcus aureus. Briefly: Inhibition of biofilm formation in methicillin-resistant Staphylococcus aureus ATCC 19498 assessed as downregulation of spa gene at MIC incubated for 1 hr by qRT-PCR. Format: functional, organism-based.
In another series the test system is Candida albicans. Briefly: Antifungal activity against Candida albicans ATCC 5314 assessed as reduction in fungal growth incubated for 24 hrs by serial dilution method. Conditions: ATCC 5314, 24 h, read-out: MIC. Format: functional.
The subject of series [18] is Staphylococcus aureus. Briefly: Disruption of membrane integrity in Staphylococcus aureus ATCC 25923 assessed as invagination of cell membrane at MIC incubated for 24 hrs by scanning electron microscopy. Format: functional, organism-based.

Activity calls are given as the source filed them.

Consider H-YIRKIRRFFKKLKKILKK-NH2, for which, in the series on Staphylococcus aureus [1], the inhibition result is “inactive”. Further, in [2], the Stability result is given as “Stable”. For the same substance, the MIC (usually the smallest concentration in the dilution series that meets the test's criterion for growth inhibition) with Staphylococcus aureus [3] was 8 µg/mL; in the series on Candida albicans, 32 µg/mL. The outcome with Staphylococcus aureus [4], in the series on Staphylococcus aureus [5], in the series on Staphylococcus aureus [6], in the series on Staphylococcus aureus [8], with Staphylococcus aureus [10] and in the series with Staphylococcus aureus [11] was Active. The result with Staphylococcus aureus [14], in the series on Staphylococcus aureus [16] and with Staphylococcus aureus [18] was Active. In [7], the hemolysis at 1 h, 640 ug/ml stood at 10.3%. Further, the inhibition entry with Staphylococcus aureus [9], in the series with Staphylococcus aureus [12], in the series with Staphylococcus aureus [13] and with Staphylococcus aureus [17] was “Active” throughout. Also, the viability at 48 h in [15] lay within 70 to 80%.
In the case of H-SYERKINRHFKTLKKNLKKK-NH2, the inhibition entry in the series with Staphylococcus aureus [1] is “inactive”. In addition, the Stability entry in series [2] is listed as “Stable”. Further, the MIC in the series with Staphylococcus aureus [3] worked out at 16 µg/mL; with Candida albicans, 64 µg/mL. The result in the series on Staphylococcus aureus [4], in the series with Staphylococcus aureus [5], in the series on Staphylococcus aureus [6], with Staphylococcus aureus [8], in the series with Staphylococcus aureus [10] and in the series with Staphylococcus aureus [11] was Active. In addition, the outcome in the series on Staphylococcus aureus [14], with Staphylococcus aureus [16] and with Staphylococcus aureus [18] was Active. Also, the hemolysis at 1 h, 640 ug/ml in series [7] was 7.06%. Also, the inhibition entry with Staphylococcus aureus [9], with Staphylococcus aureus [12], in the series on Staphylococcus aureus [13] and with Staphylococcus aureus [17] was “Active” each time. Besides, the viability at 48 h in series [15] fell in the range of 70 to 80%.
